From PubChem BioAssay (NCI)
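Results reflect a 48-hour exposure of cells in 96-well plates to compound at five concentrations. TGI: total growth inhibition.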

How the values were obtained:
Test in all cases: growth of human tumour cells (NCI), 48 h
[1] = system: HCT-15 colon
[2] = system: SF-295 CNS
[3] = system: SK-MEL-2 melanoma
[4] = system: MDA-MB-435
[5] = system: EKVX NSCLC
[6] = system: CCRF-CEM leukemia
[7] = system: RPMI-8226 leukemia
[8] = system: PC-3 prostate
[9] = system: SW-620 colon
[10] = system: HS 578T breast
[11] = system: UACC-62 melanoma
[12] = system: SF-539 CNS
[13] = system: ACHN renal
[14] = system: HCT-116 colon
[15] = system: UACC-257 melanoma
[16] = system: SN12C renal
[17] = system: U251 CNS
[18] = system: TK-10 renal
[19] = system: MCF7 breast
[20] = system: NCI-H23 lung
[21] = system: 786-0 renal
[22] = system: HCC-2998 colon
[23] = system: K-562 leukemia
[24] = system: OVCAR-8 ovarian
[25] = system: SF-268 CNS
[26] = system: LOX IMVI melanoma
[27] = system: M14 melanoma
[28] = system: IGROV1 ovarian
[29] = system: A549 NSCLC
[30] = system: SNB-19 CNS
[31] = system: CAKI-1 renal
[32] = system: HOP-92 NSCLC
[33] = system: SR leukemia
[34] = system: SK-MEL-28 melanoma
[35] = system: MDA-MB-231 breast
[36] = system: HL-60(TB) leukemia
[37] = system: HT29 colon
[38] = system: NCI-H460 lung
[39] = system: OVCAR-3 ovarian
[40] = system: T-47D breast
[41] = system: MOLT-4 leukemia
[42] = system: COLO 205 colon
[43] = system: DU-145 prostate
[44] = system: OVCAR-4 ovarian
[45] = system: NCI-H522 lung
[46] = system: BT-549 breast
[47] = system: MALME-3M melanoma
[48] = system: NCI/ADR-RES ovarian
[49] = system: MDA-N
[50] = system: SK-OV-3 ovarian
[51] = system: OVCAR-5 ovarian
[52] = system: KM12 colon
[53] = system: RXF 393 renal
[54] = system: HOP-62 NSCLC
[55] = system: UO-31 renal
[56] = system: SK-MEL-5 melanoma
[57] = system: A498 renal
[58] = system: NCI-H226 lung
[59] = system: SNB-75 CNS

Measured: TGI

CCOC(=O)c1cc(C)n(CN(CCO)Cn2nc(C(=O)OCC)cc2C)n1
42.5 µM: [48]
36.8 µM: [3]
43.9 µM: [53]
33.6 µM: [12]
27.9 µM: [22]
40.3 µM: [7]
49.7 µM: [21]
73.7 µM: [19]
96.1 µM: [47]
47.4 µM: [37]
59.9 µM: [24]
71.5 µM: [43]
68.7 µM: [46]
91.2 µM: [35]
53.8 µM: [20]
53.2 µM: [55]
41.9 µM: [42]
54.1 µM: [51]
72.3 µM: [40]
70.1 µM: [26] | [39]
48.1 µM: [1]
52.1 µM: [45]
78.3 µM: [23]
72.7 µM: [33]
55.6 µM: [13]
37.7 µM: [14]
38.2 µM: [11]
79.2 µM: [16]
42.2 µM: [6]
44 µM: [27]
62.9 µM: [54]
not listed: [58] | [59]
> 100 µM: all other assays above

CCOC(=O)c1ccc(C(=O)/C(C#N)=C2\CCCN2)n1C
not listed: [12] | [15] | [18] | [32]
> 100 µM: all other assays above

CCOC(=O)CC1C(O)C(=O)N(C)C1c1ccccc1 (centres undefined)
not listed: [38] | [57]
> 100 µM: all other assays above
